This passage reports IC50 results from BindingDB's records for PubMed 30795990 (n/a, 2019).

The IC50 is the concentration that inhibits the measured activity by half.

Molecules are shown by their SMILES.

The target in this test is Cyclin-dependent kinase 11B (Homo sapiens) (UniProt P21127). Nature of the test: Inhibition of GST-tagged human recombinant CDK11 (1 to 795 residues) expressed in baculovirus expression system.
Cyclin-dependent kinase 11B (Homo sapiens), sequence (P21127 whole entry, looked up, the tested form may be a part): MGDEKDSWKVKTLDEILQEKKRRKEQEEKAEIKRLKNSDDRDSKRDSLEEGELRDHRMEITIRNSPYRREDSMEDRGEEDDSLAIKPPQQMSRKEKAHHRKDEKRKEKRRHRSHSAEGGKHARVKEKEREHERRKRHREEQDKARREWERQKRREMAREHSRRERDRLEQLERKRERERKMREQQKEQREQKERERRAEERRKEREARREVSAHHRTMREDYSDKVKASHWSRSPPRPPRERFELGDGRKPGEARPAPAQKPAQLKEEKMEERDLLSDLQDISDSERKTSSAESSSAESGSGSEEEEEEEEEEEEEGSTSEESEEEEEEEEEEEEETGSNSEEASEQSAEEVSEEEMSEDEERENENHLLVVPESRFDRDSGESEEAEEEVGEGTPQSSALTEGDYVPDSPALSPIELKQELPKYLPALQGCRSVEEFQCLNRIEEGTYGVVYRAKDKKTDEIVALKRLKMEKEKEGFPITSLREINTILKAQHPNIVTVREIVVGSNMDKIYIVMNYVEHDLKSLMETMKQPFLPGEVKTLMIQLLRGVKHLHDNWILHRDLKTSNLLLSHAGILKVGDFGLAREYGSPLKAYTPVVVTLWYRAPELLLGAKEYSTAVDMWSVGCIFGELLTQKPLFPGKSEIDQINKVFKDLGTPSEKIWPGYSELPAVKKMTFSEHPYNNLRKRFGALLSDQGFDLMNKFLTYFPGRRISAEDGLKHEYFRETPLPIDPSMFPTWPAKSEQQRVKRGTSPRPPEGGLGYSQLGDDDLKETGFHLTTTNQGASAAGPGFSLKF

For `O=C(c1ccc2c(c1)OCCO2)C1CCN(c2ncnc3sccc23)CC1`, the IC50 was greater than 1000 nM.
